Data reported in US20060019922A1, “Selective killing of cancerous cells” (The University of North Carolina, priority 2004, published 2006).

Experiments:
Saos-2/p53- cells = experiment: Colony-formation assay with GCV in Saos-2/p53-negative cells; format: cell-based, human
Excerpt: (§1) FIGS. 9A and 9B depict regulation of the response to GCV by K2-5F induced by endogenous p53. Saos-2/p53-negative (FIG. 9A) and Saos-2/p53-positive (FIG. 9B) cells were co-transfected with plasmid pRL-2MDR-TKp-TK without (black bars) or with (gray bars) co-transfection of pFR-2p21-K2-5F. White bars represent cells transfected with empty vectors. All cells were also transfected with a β-galactosidase-expressing plasmid. After twenty-four hours, 600 cells were re-plated in 10-cm plates, and after another twenty-four hours, GCV was administered in varying concentrations. After ten days, surviving blue colonies larger than 50 cells were counted. Survival was expressed as a percentage of colonies formed at 0 GCV. […] The x-axis indicates the concentration of GCV in micromoles. The y-axis indicates the percentage of cell survival compared with cells not treated with GCV.
(§2) Cells were transfected with the plasmids indicated, along with a β-galactosidase-expressing plasmid to mark the transfected cells. […] After 10 days, surviving blue (β-galactosidase-positive) colonies larger than 50 cells were counted. Survival was expressed as a percentage of colonies formed at 0 GCV.
(§3) The pharmacological effect of K2-5F induced by endogenous p53 in stably transfected Saos-2 cells was investigated. […] The cells were then treated with GCV, and cell viability was evaluated with the use of a colony-formation assay. […]

HEK 293 cells = experiment: GCV sensitivity assay (luciferase) in transfected HEK 293 cells; format: cell-based, human; conditions: HEK 293 cells with TK, K2-5F and p53 vectors vs TK vector only or TK plus K2-5F vector
Excerpt: FIG. 6 is a graphical representation of regulation of the response to GCV by p53-induced K2-5F. Cells (HEK 293) were co-transfected with the following plasmids: pRL-2MDR-TKp-TK and pFR-2p21-K2-5F (Δ); pRL-2MDR-TKp-TK, pFR-2p21-K2-5F, and pCMV-P53-Myc (∇); or pRL-2MDR-TKp-TK and pcK2-5F (◯). The total DNA amount was adjusted by pcDNA3.1A and/or PRL-TK. A ratio of 1:20:1 between pRL-2MDR-TKp-TK, pFR-2p21-K2-5F, and pCMV-P53-Myc was used. (□) represents cells transfected with both control vectors. After twenty-four hours, cells in each well were replated uniformly into six-well plates, and after another twenty four hours, GCV was administered in varying concentrations. Luciferase activities were measured after four days of treatment with GCV. Results are expressed as a percentage of the luciferase activities at 0 GCV.
(§4) Cells were seeded in twelve-well plates and transfected as described above. […] After four days of treatment, cells were lysed, and luciferase activities or β-galactosidase activities were measured according to the manufacturer's protocol (Promega Corp., Madison, Wis., United States of America). Cell viability was estimated by luciferase activity or β-galactosidase activity, with results expressed as a percentage of the activity in the absence of GCV. […]

Saos-2/p53+ cells = experiment: Colony-formation assay with GCV in Saos-2/p53-positive cells; format: cell-based, human; conditions: Saos 2/p53-positive cells co-transfected with pRL-2MDR-TKp-TK; especially at higher GCV concentrations
Excerpt: as §1, §2, §3

HEK 293T cells = experiment: GCV sensitivity assay (luciferase or β-galactosidase activity as cell viability) in transfected HEK 293T cells; format: cell-based; conditions: Homo sapiens, 96 h, four days of GCV
Excerpt: FIG. 4 is a graphical representation of regulation of the response to GCV by constitutively expressed K2-5F. Cells (HEK 293T) were co-transfected with equal amounts of the following plasmids: pRL-2MDR-TKp-TK and pcDNA3.1A (Δ), pRL-2MDR-TKp-TK and pcK2-5F (◯), or pcDNA3.1A and PRL-TK (□). All cells were also co-transfected with a luciferase-expressing plasmid (FIG. 4A) or a β-galactosidase-expressing plasmid (FIG. 4B) as a marker. After twenty-four hours, cells in each well were re-plated evenly into six-well plates, and in another twenty four hours, GCV was administered in varying concentrations. Luciferase (FIG. 4A) or β-galactosidase (FIG. 4B) activities were measured after four days of treatment by GCV. Results are expressed as a percentage of the enzymatic activities at 0 GCV for each set of plasmids.
as §4

Q: How did the “effect of K2-5F-expressing plasmid on the dose-survival curve for GCV” value (Saos-2/p53- cells; Saos2/p53-negative cells co-transfected with pRL-2MDR-TKp-TK, colonies after 10 days) turn out when `Nc1nc(O)c2ncn(COC(CO)CO)c2n1` [GCV, ganciclovir] was run?
A: The value was “no effect”.

Q: And the “concentration of GCV required to attain toxicity” value (Saos-2/p53- cells; Saos-2 cells compared with HEK 293 cells)?
A: Its value is “higher concentration”.

Q: What about the “right shift of the dose-response profile” value (HEK 293 cells) of the same molecule?
A: Its value is “approximately 1 log”.

Q: And the “effect of K2-5F-expressing plasmid on the dose-survival curve for GCV” value (Saos-2/p53+ cells)?
A: Its value is “substantial protective effect”.

Q: What about the IC50 (HEK 293T cells; HEK 293T cells transfected with both pRL-2MDR-TKp-TK and pcK2-5F) of the same molecule?
A: The IC50 was about 10 µM.

Q: What about the IC50 (HEK 293T cells; HEK 293T cells transfected with pRL-2MDR-TKp-TK alone) of the same molecule?
A: Its IC50 is about 0.2 µM.
